Biological target: T1, human JAK1 (a.a. 837-1142) (Homo sapiens, UniProt P23458)
T1 construct: human JAK1 (a.a. 837-1142); His tag (N); made in house; host or cells: insect cells (baculovirus)
Assay: In vitro JAK kinase assay (HTRF, phosphorylation of biotinylated peptide), JAK1
Assay type: biochemical
Conditions: measured at 1 mM ATP
Protocol: The compound of Formula I herein was tested for inhibitory activity of JAK targets according to the following in vitro assay described in Park et al., Analytical Biochemistry 1999, 269, 94-104. The catalytic domains of human JAK1 (a.a. 837-1142) and JAK2 (a.a. 828-1132) with an N-terminal His tag were expressed using baculovirus in insect cells and purified. The catalytic activity of JAK1 and JAK2 was assayed by measuring the phosphorylation of a biotinylated peptide. The phosphorylated peptide was detected by homogenous time resolved fluorescence (HTRF). IC50s of compounds were measured for each kinase in the 40 microL reactions that contain the enzyme, ATP and 500 nM peptide in 50 mM Tris (pH 7.8) buffer with 100 mM NaCl, 5 mM DTT, and 0.1 mg/mL (0.01%) BSA. For the 1 mM IC50 measurements, ATP concentration in the reactions was 1 mM. Reactions were carried out at room temperature for 1 hr and then stopped with 20 μL 45 mM EDTA, 300 nM SA-APC, 6 nM Eu-Py20 in assay buffer (Perkin Elmer, Boston, Mass.). Binding to the Europium labeled antibody took place for 40 minutes and HTRF signal was measured on a Fusion plate reader (Perkin Elmer, Boston, Mass.).

T1 sequence (P23458 849-1154): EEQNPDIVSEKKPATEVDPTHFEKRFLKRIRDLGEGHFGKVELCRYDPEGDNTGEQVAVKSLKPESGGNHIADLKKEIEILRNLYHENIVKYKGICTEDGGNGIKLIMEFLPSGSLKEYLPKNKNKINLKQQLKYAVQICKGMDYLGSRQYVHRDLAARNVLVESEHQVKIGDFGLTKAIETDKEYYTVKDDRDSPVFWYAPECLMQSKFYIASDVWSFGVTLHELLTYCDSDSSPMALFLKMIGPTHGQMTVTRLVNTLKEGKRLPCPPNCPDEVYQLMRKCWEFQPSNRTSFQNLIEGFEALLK

IC50: ≤ 5 nM
SMILES: N#CCC1(n2cc(-c3ncnc4[nH]ccc34)cn2)CN(C2CCN(C(=O)c3ccnc(C(F)(F)F)c3F)CC2)C1 [Example 1, {1-{1-[3-fluoro-2-(trifluoromethyl)isonicotinoyl]piperidin-4-yl}-3-[4-(7H-pyrrolo[2,3-d]pyrimidin-4-yl)-1H-pyrazol-1-yl]azetidin-3-yl}acetonitrile]

Reference: patent US9718834B2, “Processes and intermediates for making a JAK inhibitor” (Incyte Corporation, priority 2011, dated 2017)
